{
  "source": "patent US9918972B2",
  "about": "“Treatment of leukemia with artemisinin derivatives and combinations with other antineoplastic agents” (UNIVERSITY OF MARYLAND, BALTIMORE, priority 2014, dated 2018)",
  "key": {"[1]": {"system": "MOLM14-luc AML xenografts", "test": "Subcutaneous MOLM14-luc xenograft growth in NSG mice (ARA with ART-838)", "type": "in vivo", "settings": "ARA 40 mg/kg/d i.p. plus ART-838 200 mg/kg/d p.o.", "experimental": "FIG. 14. ART-838 enhanced in vivo efficacy of ARA against acute leukemia xenografts in NSG mice. NSG mice transplanted subcutaneously with luciferase labeled MOLM14 (MOLM14-luc) AML cells, were treated with vehicle, ARA (“Ara-C”), ART-838 or ART-838 plus ARA starting on day 17 after transplantation. Ara-C (40 mg/kg/d) was given i.p. on day 17, 18, 19, 20, 21 and 24. ART-838 (200 mg/kg/d) was given p.o. on day 17, 20 and 24. Mouse tumors were measured on the indicated days.\nHighly immunodeficient NSG mice, obtained originally from Jackson Laboratory (Bar Harbor, Me.), were bred and housed in the UMSOM animal facilities, and handled in a laminar flow hood under aseptic conditions. All experiment procedures and animal care were in compliance with the NIH guidelines for the Care and Use of Laboratory Animals and approved by the UMSOM Institutional Animal Care and Use Committee. ART-838 were formulated in Tween 80:ethanol (7:3, v:v) and diluted 1:10 in filtered deionized water immediately before administration. […] Mice were monitored daily and euthanized when tumors reached an estimated mass of 2000 mg (using the formula: [length×width2]/2, assuming density=1 mg/mm3).\nThe anti-leukemic efficacy of ART-838 plus ARA was tested in NSG mice transplanted subcutaneously with luciferase labeled MOLM14 (MOLM14-luc) AML cells. […] Mouse tumors were measured with calipers on the indicated days."}, "MOLM14 cells [2]": {"system": "MOLM14 cells", "test": "ROS - mitochondrial superoxide (MitoSOX flow cytometry)", "type": "cell-based, human", "settings": "16 h; for effect on AS-induced superoxide generation: MOLM14, combined with AS, 2.25x IC50s", "experimental": "FIGS. 4A-4D. […] CIs were computed as described above. CI<1 indicates synergy, CI=1, additivity, CI>1, antagonism. […] Cells were then loaded with 5 μM MitoSox for 30 min, washed, and analyzed by flow cytometry for MitoSox fluorescence (indicating mitochondrial superoxide) in the FL2 channel. […] Error bars represent the SEM of three independent experiments."}, "KOPN8 cells": {"system": "KOPN8 cells", "test": "alamarBlue cytotoxicity assay, single-drug IC50, 48 h", "type": "cell-based", "settings": "Homo sapiens, KOPN-8", "experimental": "Cytotoxicity was assessed using alamarBlue assays (Life Technologies, Grand Island, N.Y.; used for IC50 determinations and all drug combinations except the drug combination screen (method described separately below)) or Trypan Blue dye exclusion (Life Technologies, Grand Island, N.Y.; used only for experiments using inhibitors that could interfere with alamarBlue assay performance (NAC, Tiron, DFO)).\nCell lines were seeded in 96-well tissue culture plates at 10^4 cells per well (myeloid leukemia lines) or 2×10^4 cells per well (lymphoid leukemia lines) in culture medium, followed by addition of drugs at the indicated concentrations. 2-4 wells per plate containing media-only were included for background subtraction. Peripheral wells were filled with sterile water to minimize the effects of evaporation.\nMOLM14 cells were treated with each of these drugs, alone and in combination with ART-838 or AS at an equipotency ratio based on the IC50s for each drug (Table 1). In Table 1, KOPN8 and MOLM14 cell lines were treated with a range of concentrations of each drug for 48 h then cytotoxicity was measured via alamarBlue assay. Results were normalized to cells treated with vehicle (≦0.5% DMSO) alone. IC50s were calculated using CompuSyn software and represent the means of at least three experiments performed in triplicate. Addition of ART-838 or AS enhanced the cytotoxicity of all six tested drugs across a range of concentrations (FIG. 2). Drug interactions were typically most favorable (more additive/synergistic or less antagonistic) at higher doses."}, "MOLM14 cells [3]": {"system": "MOLM14 cells", "test": "Preliminary cytotoxicity of ROS/iron inhibitors (Trypan Blue dye exclusion assays)", "type": "cell-based, human", "settings": "read-out: approximate 48-hour IC50"}, "MOLM14 cells [4]": {"system": "MOLM14 cells", "test": "alamarBlue cytotoxicity assay, single-drug IC50, 48 h", "type": "cell-based, human", "settings": "Homo sapiens, MOLM-14; MOLM14, single drug, 48 h, alamarBlue", "experimental": "Peripheral wells were filled with sterile water to minimize the effects of evaporation. […] Results were normalized to cells treated with vehicle (≦0.5% DMSO) alone. IC50s were calculated using CompuSyn software and represent the means of at least three experiments performed in triplicate."}, "MOLM14 cells [5]": {"system": "MOLM14 cells", "test": "Drug combination analysis (Chou and Talalay), simultaneous 48 h treatment, alamarBlue", "type": "cell-based, human", "settings": "MOLM14, combined with AS, 2.25x single-drug IC50s", "experimental": "FIGS. 2A-2B. ART-838 or AS enhanced the cytotoxicity of all six antileukemic drugs tested in MOLM14. […] Each experiment was performed three times in triplicate, and error bars represent the SEM. All panels have error bars but some are too small to be visible. Combination indices (CI) were computed for each drug combination using CompuSyn software, based on the Median Effect Principle and the CI theorem of Chou-Talalay, wherein CI=1 indicates additivity, CI<1 synergism, and CI>1 antagonism.\nFIGS. 4A-4D. Effects of ART-838- and AS-containing drug combinations on MOLM14 growth and superoxide generation. […]. CIs were computed as described above. CI<1 indicates synergy, CI=1, additivity, CI>1, antagonism. […] Cells were then loaded with 5 μM MitoSox for 30 min, washed, and analyzed by flow cytometry for MitoSox fluorescence (indicating mitochondrial superoxide) in the FL2 channel. Mean fluorescence intensity (MFI) was normalized to that of vehicle control (0.5% DMSO) with no pretreatment (100%, lower dotted lines). Upper dotted lines show MFI of ART-838- or AS-treated cells. Error bars represent the SEM of three independent experiments.\nFor each two-drug pair, dose-response curves were generated for each drug individually and for the two drugs combined. […]. […]"}, "MOLM14 AML xenografts": {"system": "MOLM14 AML xenografts", "test": "Subcutaneous MOLM14 xenograft growth in NSG mice (SOR with AS)", "type": "in vivo", "settings": "SOR plus AS p.o.", "experimental": "FIG. 15. AS enhanced in vivo efficacy of Sorafenib (SOR) against acute leukemia xenografts in NSG mice. […] Drug or vehicle were given p.o. on day 3-7, 17-21, and 31-35 when possible. Mouse tumors were measured on the indicated days.\nThe NSG mice were obtained, maintained and handled as described in the paragraph immediately above. AS was also formulated in Tween 80:ethanol (7:3, v:v) and diluted 1:10 in filtered deionized water immediately before administration. For the human AML xenograft model, 6-12-week-old male NSG mice (>20 g) were transplanted sc with MOLM14 cells on day 0 and drug-treated via oral gavage, as specified in legend. Mice were monitored daily and euthanized when tumors reached an estimated mass of 2000 mg as described in the paragraph immediately above.\nPalpable tumors appeared about 2 weeks after transplantation."}},
  "note": "Where a name gives a salt, the structure may show the parent alone.",
  "data": [
    {"compound": "Nc1ccn([C@@H]2O[C@H](CO)[C@@H](O)[C@@H]2O)c(=O)n1", "note": "[ARA, cytarabine]", "values": [
      {"measurement": "tumor growth (tumor size on day 24)", "setting": "[1]", "result": "inhibited tumor growth substantially more than did either drug alone"},
      {"measurement": "effect on AS-induced superoxide generation", "setting": "MOLM14 cells [2]", "result": "further enhanced"},
      {"measurement": "IC50", "setting": "KOPN8 cells", "result": 0.073, "unit": "µM"}
    ]},
    {"compound": "CC(=O)N(O)CCCCCNC(=O)CCC(=O)N(O)CCCCCNC(=O)CCC(=O)N(O)CCCCCN", "note": "[DFO, deferoxamine mesylate]", "values": [
      {"measurement": "IC50", "setting": "MOLM14 cells [3]; Homo sapiens, MOLM-14, 48 h", "result": "~11", "unit": "µM"}
    ]},
    {"compound": "COc1cccc2c1C(=O)c1c(O)c3c(c(O)c1C2=O)C[C@@](O)(C(=O)CO)C[C@@H]3O[C@H]1C[C@H](N)[C@H](O)[C@H](C)O1", "note": "[DOX, doxorubicin]", "values": [
      {"measurement": "effect on ART-838-induced superoxide generation", "setting": "MOLM14 cells [2]; MOLM14, combined with ART-838, 2.25x IC50s", "result": "further enhanced"},
      {"measurement": "effect on AS-induced superoxide generation", "setting": "MOLM14 cells [2]", "result": "further enhanced"},
      {"measurement": "IC50", "setting": "MOLM14 cells [4]", "result": 0.079, "unit": "µM"},
      {"measurement": "IC50", "setting": "KOPN8 cells", "result": 0.03, "unit": "µM"}
    ]},
    {"compound": "C[C@]12O[C@H](C[C@]1(O)CO)n1c3ccccc3c3c4c(c5c6ccccc6n2c5c31)CNC4=O", "note": "[LES, lestaurtinib]", "values": [
      {"measurement": "Combination index (CI), interaction", "setting": "MOLM14 cells [5]", "result": 1.5},
      {"measurement": "IC50", "setting": "MOLM14 cells [4]", "result": 0.003, "unit": "µM"},
      {"measurement": "IC50", "setting": "KOPN8 cells", "result": 0.045, "unit": "µM"}
    ]},
    {"compound": "CC(=O)N[C@@H](CS)C(=O)O", "note": "[NAC]", "values": [
      {"measurement": "IC50", "setting": "MOLM14 cells [3]; MOLM14, preliminary experiments", "result": "~25000", "unit": "µM"}
    ]},
    {"compound": "CNC(=O)c1cc(Oc2ccc(NC(=O)Nc3ccc(Cl)c(C(F)(F)F)c3)cc2)ccn1", "note": "[SOR, sorafenib]", "values": [
      {"measurement": "tumor growth (tumor size on day 24)", "setting": "MOLM14 AML xenografts", "result": "inhibited tumor growth substantially more than did either drug alone"},
      {"measurement": "effect on AS-induced superoxide generation", "setting": "MOLM14 cells [2]", "result": "reduced"},
      {"measurement": "IC50", "setting": "MOLM14 cells [4]", "result": 0.004, "unit": "µM"},
      {"measurement": "IC50", "setting": "KOPN8 cells", "result": 4.2, "unit": "µM"}
    ]},
    {"compound": "O=S(=O)(O)c1cc(O)c(O)c(S(=O)(=O)O)c1", "note": "[Tiron]", "values": [
      {"measurement": "IC50", "setting": "MOLM14 cells [3]; Homo sapiens, MOLM-14, 48 h, MOLM14, preliminary experiments", "result": "~1000", "unit": "µM"}
    ]}
  ]
}
